In patent US20260272983A1, “METHODS AND COMPOSITIONS FOR TREATING AUTOIMMUNE DISEASES” (priority 2023, published 2026):

Tested on: subject having an autoimmune disease
Assay type: in vivo, human
Settings: IV cyclophosphamide regimen of TABLE 1, no fludarabine, before CAR T infusion
Description: T cells are obtained from a subject having an autoimmune disease (for example, an autoimmune disease selected from (SLE), lupus nephritis, SLE with anti-dsDNA antibodies, pemphigus vulgaris (PV), mucosal PV, mucocutaneous PV, myasthenia gravis (MG), MuSK-associated MG, AChR MG, myositis, membranous nephropathy, anti-synthetase syndrome, dermatomyositis, immune mediated necrotizing myopathy, multiple sclerosis, neuromyelitis optica, chronic inflammatory demyelinating polyneuropathy, anti-NMDA Receptor encephalitis, Lambert-Eaton syndrome, pemphigus foliaceus, epidermolysis bullosa acquisita, bullous pemphigoid, Goodpasture's syndrome, rheumatoid arthritis, systemic sclerosis, anti-neutrophil cytoplasmic antibody (ANCA)-associated vasculitis, immune thrombocytopenic purpura, antiphospholipid syndrome, autoimmune hemolytic anemia, type 1 diabetes, Grave's disease, Hashimoto's disease, and Sjogren's syndrome). […]
A dose of CAR T cells (e.g., from 1×10^6 to 1×10^7 cells/kg bodyweight) is intravenously administered to the subject. The subject is monitored post-infusion for B-cell levels, white blood cell count, CAR T cell levels, and for autoimmune disease markers (e.g., autoantibody levels).

Q: O=P1(N(CCCl)CCCl)NCCCO1 (stereo not shown) [cyclophosphamide] was tested. Which “effectiveness of the cyclophosphamide preconditioning regimen used prior to CD19-CAR T cell therapy in treating the autoimmune disease” value did it give?
A: The value was “effective in the treatment of the autoimmune disease”.
